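Test compounds were applied to cells in 96-well plates for 48 hours at 5 doses. GI50: concentration for 50% inhibition of growth.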 The source made the active and inactive calls. Cut-off read from the data, not from the text of the source: active = GI50 up to about 1.1 µM and inactive = higher.
Columns and labels:
Assay in all cases: NCI anticancer screen, dose series, 48 h
[1] = system: SW-620
[2] = system: UACC-62
[3] = system: NCI-H23
[4] = system: BT-549
[5] = system: IGROV-1
[6] = system: TK-10
[7] = system: RPMI-8226
[8] = system: UO-31
[9] = system: MCF7
[10] = system: U-251
[11] = system: NCI/ADR-RES
[12] = system: SNB-19
[13] = system: NCI-H522
[14] = system: HOP-92
[15] = system: SN12C
[16] = system: DU-145
[17] = system: PC-3
[18] = system: CAKI-1
[19] = system: OVCAR-5
[20] = system: SNB-75
[21] = system: EKVX
[22] = system: K562
[23] = system: SK-MEL-5
[24] = system: SF-295
[25] = system: ACHN
[26] = system: LOX IMVI
[27] = system: MDA-MB-231
[28] = system: UACC-257
[29] = system: SK-MEL-2
[30] = system: MOLT-4
[31] = system: MDA-N
[32] = system: HCT-116
[33] = system: OVCAR-8
[34] = system: HCC 2998
[35] = system: MDA-MB-435
[36] = system: M14
[37] = system: CCRF-CEM
[38] = system: 786-0
[39] = system: SF-539
[40] = system: SK-MEL-28
[41] = system: OVCAR-4
[42] = system: NCI-H226
[43] = system: SR
[44] = system: OVCAR-3
[45] = system: COLO 205
[46] = system: NCI-H460
[47] = system: Malme-3M
[48] = system: A549
[49] = system: HOP-62
[50] = system: HCT-15
[51] = system: RXF 393
[52] = system: SK-OV-3
[53] = system: SF-268
[54] = system: KM12
[55] = system: HT-29
[56] = system: HL-60
[57] = system: A498
[58] = system: T47D
[59] = system: Hs-578T

For COC1OC(C(=O)O)C2OC(C)(C)OC12 (configuration not stated), the GI50 [1] was > 100 µM (inactive), the GI50 [2] was > 100 µM (inactive) and the GI50 [3] was > 100 µM (inactive). The GI50 [4] was > 100 µM (inactive), the GI50 [5] was > 100 µM (inactive) and the GI50 [6] was > 100 µM (inactive). The GI50 [7] was > 100 µM (inactive), the GI50 [8] was > 100 µM (inactive) and the GI50 [9] was > 100 µM (inactive). The GI50 [10] was > 100 µM (inactive), the GI50 [11] was > 100 µM (inactive) and the GI50 [12] was > 100 µM (inactive). The GI50 [13] was > 100 µM (inactive), the GI50 [14] was > 100 µM (inactive) and the GI50 [15] was > 100 µM (inactive). For the same compound, the GI50 [16] was > 100 µM (inactive), the GI50 [17] was > 100 µM (inactive) and the GI50 [18] was > 100 µM (inactive). The GI50 [19] was > 100 µM (inactive), the GI50 [20] was > 100 µM (inactive) and the GI50 [21] was > 100 µM (inactive). The GI50 [22] was > 100 µM (inactive), the GI50 [23] was > 100 µM (inactive) and the GI50 [24] was > 100 µM (inactive). For the same compound, the GI50 [25] was > 100 µM (inactive), the GI50 [26] was > 100 µM (inactive) and the GI50 [27] was > 100 µM (inactive). The GI50 [28] was > 100 µM (inactive), the GI50 [29] was > 100 µM (inactive) and the GI50 [30] was > 100 µM (inactive). The GI50 [31] was > 100 µM (inactive), the GI50 [32] was > 100 µM (inactive) and the GI50 [33] was > 100 µM (inactive). For the same compound, the GI50 [34] was > 100 µM (inactive), the GI50 [35] was > 100 µM (inactive) and the GI50 [36] was > 100 µM (inactive). The GI50 [37] was > 100 µM (inactive), the GI50 [38] was > 100 µM (inactive) and the GI50 [39] was > 100 µM (inactive). For the same compound, the GI50 [40] was > 100 µM (inactive), the GI50 [41] was > 100 µM (inactive) and the GI50 [42] was > 100 µM (inactive). The GI50 [43] was > 100 µM (inactive), the GI50 [44] was > 100 µM (inactive) and the GI50 [45] was > 100 µM (inactive). For the same compound, the GI50 [46] was > 100 µM (inactive), the GI50 [47] was > 100 µM (inactive) and the GI50 [48] was > 100 µM (inactive). The GI50 [49] was > 100 µM (inactive), the GI50 [50] was greater than 100 µM and the GI50 [51] was > 100 µM (inactive). The GI50 [52] was > 100 µM (inactive), the GI50 [53] was > 100 µM (inactive) and the GI50 [54] was > 100 µM (inactive). For the same compound, the GI50 [55] was > 100 µM (inactive).

In the case of O=C(O)c1c2c(cc3c1CC1(Cc4ccccc4C1=O)C3)CCC2 (configuration not stated), the GI50 [1] is reported as 30.1 µM (inactive), the GI50 [2] is reported as 21.8 µM (inactive) and the GI50 [3] is reported as 44 µM (inactive). The GI50 [4] was 33 µM (inactive), the GI50 [5] was > 61.5 µM (inactive) and the GI50 [6] was > 66.7 µM (inactive). The GI50 [7] was 18.4 µM (inactive), the GI50 [8] was 38 µM (inactive) and the GI50 [9] was 26.2 µM (inactive). For the same compound, the GI50 [10] was 29 µM (inactive), the GI50 [11] was 28.7 µM (inactive) and the GI50 [12] was 47 µM (inactive). The GI50 [13] was 22.1 µM (inactive), the GI50 [14] was 25.5 µM (inactive) and the GI50 [15] was 46.5 µM (inactive). For the same compound, the GI50 [16] was 64 µM (inactive), the GI50 [17] was 27.2 µM (inactive) and the GI50 [18] was 41.5 µM (inactive). For the same compound, the GI50 [19] was 65.5 µM (inactive), the GI50 [20] was 26.5 µM (inactive) and the GI50 [21] was 33.9 µM (inactive). For the same compound, the GI50 [22] was 5.79 µM (inactive), the GI50 [23] was 19.6 µM (inactive) and the GI50 [24] was 38.6 µM (inactive). The GI50 [25] was 57 µM (inactive), the GI50 [56] was 3.17 µM (inactive) and the GI50 [26] was 23.8 µM (inactive). The GI50 [27] was 34.6 µM (inactive), the GI50 [28] was 50 µM (inactive) and the GI50 [29] was 19 µM (inactive). The GI50 [57] was 33 µM (inactive), the GI50 [30] was 11.4 µM (inactive) and the GI50 [32] was 21.6 µM (inactive). For the same compound, the GI50 [33] was 44.9 µM (inactive), the GI50 [34] was 3.33 µM (inactive) and the GI50 [58] was 32.5 µM (inactive). The GI50 [35] was 3.69 µM (inactive), the GI50 [36] was 18.9 µM (inactive) and the GI50 [37] was 9.91 µM (inactive). For the same compound, the GI50 [38] was 47.5 µM (inactive), the GI50 [39] was 29.7 µM (inactive) and the GI50 [40] was 52 µM (inactive). For the same compound, the GI50 [41] was 27.8 µM (inactive), the GI50 [42] was 24.3 µM (inactive) and the GI50 [43] was 2.93 µM (inactive). The GI50 [44] was 26.1 µM (inactive), the GI50 [45] was 17.4 µM (inactive) and the GI50 [46] was 4.62 µM (inactive). For the same compound, the GI50 [47] was 16.5 µM (inactive), the GI50 [59] was 34 µM (inactive) and the GI50 [48] was 11.1 µM (inactive). The GI50 [49] was 64.7 µM (inactive), the GI50 [50] was 14.8 µM and the GI50 [51] was 25.8 µM (inactive). For the same compound, the GI50 [52] was 47.4 µM (inactive), the GI50 [53] was 59.4 µM (inactive) and the GI50 [54] was 14.4 µM (inactive). For the same compound, the GI50 [55] was 14.8 µM (inactive).

In the case of CN1CNc2nc(N)n(C)c(=O)c2C1, the GI50 [2] is reported as > 10 µM (inactive), the GI50 [3] is reported as > 10 µM (inactive) and the GI50 [4] is reported as > 10 µM (inactive). The GI50 [5] was > 10 µM (inactive), the GI50 [6] was > 10 µM (inactive) and the GI50 [8] was > 10 µM (inactive). For the same compound, the GI50 [10] was > 10 µM (inactive), the GI50 [11] was > 10 µM (inactive) and the GI50 [12] was > 10 µM (inactive). The GI50 [13] was > 10 µM (inactive), the GI50 [14] was > 10 µM (inactive) and the GI50 [15] was > 10 µM (inactive). The GI50 [16] was > 10 µM (inactive), the GI50 [19] was > 10 µM (inactive) and the GI50 [20] was 7.46 µM (inactive). For the same compound, the GI50 [21] was > 10 µM (inactive), the GI50 [22] was > 10 µM (inactive) and the GI50 [24] was > 10 µM (inactive). For the same compound, the GI50 [25] was > 10 µM (inactive), the GI50 [56] was > 10 µM (inactive) and the GI50 [28] was > 10 µM (inactive). For the same compound, the GI50 [29] was > 10 µM (inactive), the GI50 [30] was > 10 µM (inactive) and the GI50 [31] was > 10 µM (inactive). For the same compound, the GI50 [33] was > 10 µM (inactive), the GI50 [34] was > 10 µM (inactive) and the GI50 [35] was > 10 µM (inactive). For the same compound, the GI50 [36] was > 10 µM (inactive), the GI50 [37] was > 10 µM (inactive) and the GI50 [38] was > 10 µM (inactive). The GI50 [39] was > 10 µM (inactive), the GI50 [41] was > 10 µM (inactive) and the GI50 [42] was > 10 µM (inactive). The GI50 [43] was > 10 µM (inactive), the GI50 [44] was > 10 µM (inactive) and the GI50 [46] was > 10 µM (inactive). For the same compound, the GI50 [47] was > 10 µM (inactive), the GI50 [48] was > 10 µM (inactive) and the GI50 [50] was greater than 10 µM. For the same compound, the GI50 [51] was > 10 µM (inactive), the GI50 [52] was > 10 µM (inactive) and the GI50 [53] was > 10 µM (inactive). For the same compound, the GI50 [54] was > 10 µM (inactive) and the GI50 [55] was > 10 µM (inactive).

With N=c1oc2ccc([N+](=O)[O-])cc2cc1C(=O)NCc1ccccc1 the GI50 [1] was 20 µM (inactive), the GI50 [2] was 20.2 µM (inactive) and the GI50 [4] was 14 µM (inactive). For the same compound, the GI50 [5] was 12.3 µM (inactive), the GI50 [6] was 29.2 µM (inactive) and the GI50 [7] was 38.7 µM (inactive). For the same compound, the GI50 [8] was 18 µM (inactive), the GI50 [9] was 35.7 µM (inactive) and the GI50 [10] was 28 µM (inactive). For the same compound, the GI50 [11] was 16.5 µM (inactive), the GI50 [12] was 39 µM (inactive) and the GI50 [13] was 12.8 µM (inactive). The GI50 [14] was 18 µM (inactive), the GI50 [15] was 19.9 µM (inactive) and the GI50 [16] was 33 µM (inactive). The GI50 [17] was 19.6 µM (inactive), the GI50 [18] was 19.2 µM (inactive) and the GI50 [19] was 32.9 µM (inactive). The GI50 [20] was 11.5 µM (inactive), the GI50 [21] was 38.8 µM (inactive) and the GI50 [22] was 40 µM (inactive). For the same compound, the GI50 [23] was 18.7 µM (inactive), the GI50 [24] was 36.4 µM (inactive) and the GI50 [25] was 16.7 µM (inactive). The GI50 [56] was 27.2 µM (inactive), the GI50 [26] was 17.7 µM (inactive) and the GI50 [27] was 22 µM (inactive). The GI50 [28] was 19.8 µM (inactive), the GI50 [29] was 19.3 µM (inactive) and the GI50 [30] was 27.9 µM (inactive). For the same compound, the GI50 [32] was 16.3 µM (inactive), the GI50 [33] was 15.2 µM (inactive) and the GI50 [34] was 32.1 µM (inactive). For the same compound, the GI50 [58] was 17.9 µM (inactive), the GI50 [35] was 23.1 µM (inactive) and the GI50 [36] was 23.4 µM (inactive). The GI50 [37] was 27 µM (inactive), the GI50 [38] was 24.6 µM (inactive) and the GI50 [39] was 17.7 µM (inactive). The GI50 [40] was 20.3 µM (inactive), the GI50 [41] was 24.6 µM (inactive) and the GI50 [42] was 12.9 µM (inactive). The GI50 [43] was 34.4 µM (inactive), the GI50 [45] was 20.6 µM (inactive) and the GI50 [46] was 41 µM (inactive). The GI50 [47] was 13.5 µM (inactive), the GI50 [59] was 18.7 µM (inactive) and the GI50 [48] was 57.1 µM (inactive). The GI50 [49] was 38.5 µM (inactive), the GI50 [50] was 17.8 µM and the GI50 [51] was 14.7 µM (inactive). The GI50 [52] was 39.2 µM (inactive), the GI50 [53] was 22.3 µM (inactive) and the GI50 [54] was 14.3 µM (inactive). The GI50 [55] was 18.5 µM (inactive).
